Results as given in patent US20070212331A1, “Methods and compositions for selectively killing cells” (priority 2006, published 2007).
“Also recorded” adds a separate entry of the source. Like-named read-outs stand apart in the source and are kept apart here. Where a SMILES comes first, the peptide text is derived from it. The star is where a group is joined. Cbz = O=C(OCc1ccccc1)*; CH2F = FC*

Tests used:
Type in all cases: cell-based
PC12 cells = assay: Zinc-induced cell death of PC12 cells; conditions: for effect on cell viability: high (mM) concentrations
[1] = test system: IIC9 cells (embryonic fibroblasts); assay: IIC9 cell death by trypan blue uptake; conditions: for effect on cell viability: high (mM) concentrations; for attenuation of zinc-induced cell death: Z-VAD preincubation
ERK1/2 = ERK1/2 activation in IIC9 cells, Western blot with anti-pERK antibody; conditions: IIC9 cells preincubated with inhibitor
Procedure: (§1) Assays: ERK1/2 activation was determined by harvesting cells directly in boiling SDS-PAGE sample buffer and probing corresponding Western Blots with anti-pERK antibody (Cell Signaling). Blots were stripped and reprobed for total ERK (Cell Signaling). Ras activation was determined using the Raf-RBD assay (21,24). Identification of the specific Ras isoform activated was determined by probing the western blot with isoform-specific antibody (Upstate Biotechnology). Transfection of IIC9 cells was carried out using Novafector. Transfection efficiency of these cells is approximately 90%. The constructs for expression of dn-Ras and Bcl-Xl were kindly provided by Dr. J. Corbett and Dr. Chinnaduri (SLU).

[2] = test system: IIC9 cells (embryonic fibroblasts); assay: IIC9 cell morphology, microscopic examination; conditions: cells preincubated with inhibitor, 50 μM zinc (FIG. 2B-D)
Procedure: FIG. 1 depicts zinc-induced cell death in a time and dose dependent manner. (A) IIC9 cells (embryonic fibroblasts) were serum starved for 2 days and treated with the indicated concentrations of zinc for the indicated time periods. Cell death was monitored by trypan blue exclusion as described in the Materials and Methods. (B-D) Zinc-induced cell death is accompanied by morphological changes associated with apoptosis and necrosis. Shown are cells that were incubated with either 50 μM (C) or 200 μM (D) zinc for 6 hours. Control cells (B) were untreated. Cells were examined microscopically for changes in cell shape and size. […] Cell debris, indicative of cell lysis, was evident.
Cells and Incubation Conditions: IIC9 cells were grown in DMEM containing 10% FCS, P/S. Cells were plated in 12-well plates and grown to approximately 70% confluency. At that time, cells were serum arrested by changing the medium to DMEM (low glucose) without FCS. After 48 hours, cells were treated with zinc as described in the text. Cell death was quantified by trypan blue uptake. Cells were incubated with trypan blue (0.04%) for 5 min. Cells were examined microscopically and the number of blue cells and total cells were counted. Four fields were examined for each condition, with a minimum of 100 cells/field. To examine the effects of selective inhibitors, cells were preincubated with the indicated compound for 30 min. prior to zinc treatment.

ERK = ERK activation (pERK) in PC12 cells; conditions: PC12 cells preincubated with inhibitor
Ras = Ras activation in IIC9 cells, Raf-RBD pull-down assay
Procedure: as §1
Because Ras is a common upstream activator of ERK1/2 (36), we reasoned that zinc may induce the phosphorylation of ERK1/2 via Ras. This was examined by incubating IIC9 cells with 100 uM zinc and assessing Ras activation by RBD pull-down of GTP-Ras followed by Western blot analysis with a pan-Ras antibody. […] The critical role of Ras in mediating the effects of zinc was confirmed by examining the effect of over-expression of dnRas. […] Consistent with Ras as the upstream activator of the cytotoxic effect of zinc on IIC9, expression of dn H-Ras also attenuates zinc-mediated cell death (FIG. 5B).

[3] = PC12 cells, same range of concentrations as zinc
[4] = IIC9 cells, same range of concentrations as zinc

[Ca] [Ca]
effect on cell viability (PC12 cells; PC12 cells): no effect on cell viability | effect on cell viability ([1]; IIC9 cells): no effect on cell viability

[Cd] [Cd]
cell death (apoptosis or necrosis) by metal salts (PC12 cells; [3]): did result in cell death

[Cl-].[Cl-].[Co+2] [CoCl2]
cell death (apoptosis or necrosis) by metal salts (PC12 cells): No cell death | cell death by metal salts [1]: does not result in the cell death

O=S(=O)([O-])[O-].[Cu+2] [CuSO4]
cell death (apoptosis or necrosis) by metal salts (PC12 cells; [3]): No cell death | cell death by metal salts [1, 4]: does not result in the cell death

[Li] [Li]
effect on cell viability (PC12 cells; PC12 cells): no effect on cell viability | effect on cell viability ([1]; IIC9 cells): no effect on cell viability

[Mg] [Mg]
effect on cell viability (PC12 cells; PC12 cells): no effect on cell viability | effect on cell viability ([1]; IIC9 cells): no effect on cell viability

[Mn] [Mn]
effect on cell viability (PC12 cells; PC12 cells): no effect on cell viability | effect on cell viability ([1]; IIC9 cells): no effect on cell viability

[Cl][Ni][Cl] [NiCl2]
cell death (apoptosis or necrosis) by metal salts (PC12 cells; [3]): No cell death | cell death by metal salts [1, 4]: does not result in the cell death

COc1cc2ncnc(Nc3cccc(Br)c3)c2cc1OC [PD153035]
effect of inhibitor on ERK activation by zinc (ERK1/2): does not alter ERK activation

CC(C)(C)n1nc(-c2ccc(Cl)cc2)c2c(N)ncnc21 [PP2]
effect of inhibitor on ERK activation by zinc (ERK1/2): does not inhibit zinc activation of ERK1/2

C[S+]([O-])c1ccc(-c2nc(-c3ccncc3)c(-c3ccc(F)cc3)[nH]2)cc1 (stereo not drawn) [SB203580]
effect of preincubation with inhibitor on zinc-mediated cell death ([1]; 30 min preincubation, then 50 μM zinc (FIG. 2A)): does not affect zinc-mediated cell death

N#CC(=C(/N)Sc1ccccc1N)/C(C#N)=C(\N)Sc1ccccc1N [U0126]
effect of preincubation on zinc-induced cell death (PC12 cells): greatly attenuated | effect on morphological changes induced by zinc [2]: limited; also recorded: prevented the morphological changes | effect of preincubation on zinc-induced ERK activation (ERK): attenuated that activation | cell death in cells pretreated with inhibitor [1]: Little or no death | effect of preincubation with inhibitor on zinc-mediated cell death [1]: inhibits zinc-induced cell death | effect of inhibitor on ERK activation by zinc (ERK1/2): significantly reduces ERK activation; also recorded: significantly reduced

CC(NC(=O)C(NC(=O)OCc1ccccc1)C(C)C)C(=O)NC(CC(=O)O)C(=O)CF (stereo not drawn) [Z-VAD] (Cbz-Val-Ala-Asp-CH2F; configuration not given here)
cell death in cells pretreated with Z-VAD ([1]; 50 μM zinc, first 6 hours of zinc treatment): little cell death | attenuation of zinc-induced cell death ([1]; 50 μM zinc, 21 h): 50% | attenuation of zinc-induced cell death ([1]; 100 μM zinc, 21 h): limited attenuation | attenuation of zinc-induced cell death ([1]; 100 μM zinc, first 6 hours): approximately 50% | effect of Z-VAD on zinc-mediated cell death ([1]; early hours (3-6), indicated zinc concentrations (FIG. 3A)): greatly attenuated death

O=S(=O)([O-])[O-].[Zn+2] [ZnSO4]
cell death (apoptosis or necrosis) by metal salts (PC12 cells; [3]): equally effective as ZnCl2 | cell death by metal salts [1, 4]: equally effective as ZnCl2

thrombin
activation of Ras (Ras; IIC9 cells stimulated with thrombin, previous finding of the inventors): 3- to 5 fold | Ras isoform activated (Ras; IIC9 cells, isoform-specific antibody): rapid activation of N-Ras, followed by a sustained activation of K-Ras
